Here are results for 3 compounds from DBAASP.

Converted amounts (≈) assume the structure as drawn. “And” between values parts separate entries of the source, which are not always exact repeats. Identical values can stand only once.

Test in all cases: ≥ marks a high value that may be exact or a test limit, other limits are often not marked, values filed in µg/mL are converted to µM
Experiment [1] has as its system Escherichia coli ATCC 25922.
The test system of experiment [2] is Klebsiella pneumoniae ATCC 700603.
The subject of experiment [3] is Pseudomonas aeruginosa ATCC 27853.
The subject of experiment [4] is Staphylococcus aureus ATCC 29213.
Experiment [5] relates to Staphylococcus aureus ATCC 33591.
Experiment [6] deals with Staphylococcus aureus ATCC 700699.
In experiment [7] the test system is Acinetobacter baumannii CCARM 12005.
The subject of experiment [8] is Acinetobacter baumannii CCARM 12035.
Experiment [9] relates to Acinetobacter baumannii CCARM 12036.
Experiment [10] has as its system Acinetobacter baumannii CCARM 12037.
The subject of experiment [11] is Bacillus subtilis KCTC 1021.
Experiment [12] deals with Bacillus subtilis KCTC 1022.
In experiment [13] the test system is Bacillus subtilis KCTC 3068.
In experiment [14] the test system is Escherichia coli CCARM 1229.
Experiment [15] deals with Escherichia coli CCARM 1238.
For experiment [16], the system named is Escherichia coli KCTC 1682.
Experiment [17] deals with Escherichia coli KCTC 2571.
Experiment [18] relates to Escherichia coli KCTC 2593.
Experiment [19] has as its system Pseudomonas aeruginosa CCARM 2002.
Experiment [20] deals with Pseudomonas aeruginosa CCARM 2003.
Experiment [21] concerns Pseudomonas aeruginosa CCARM 2095.
In experiment [22] the test system is Pseudomonas aeruginosa CCARM 2163.
For experiment [23], the system named is Pseudomonas aeruginosa KCTC 1637.
In experiment [24] the test system is Pseudomonas aeruginosa KCTC 2004.
Experiment [25] deals with Pseudomonas aeruginosa KCTC 2513.
Experiment [26] relates to Salmonella typhimurium CCARM 8003.
Experiment [27] relates to Salmonella typhimurium CCARM 8007.
For experiment [28], the system named is Salmonella typhimurium CCARM 8009.
The test system of experiment [29] is Salmonella typhimurium KCTC 1926.
The test system of experiment [30] is Staphylococcus aureus CCARM 3089.
The test system of experiment [31] is Staphylococcus aureus CCARM 3090.
In experiment [32] the test system is Staphylococcus aureus CCARM 3108.
Experiment [33] relates to Staphylococcus aureus CCARM 3114.
Experiment [34] deals with Staphylococcus aureus CCARM 3126.
The test system of experiment [35] is Staphylococcus aureus KCTC 1621.
The test system of experiment [36] is Staphylococcus aureus KCTC 1916.
Experiment [37] relates to Staphylococcus aureus KCTC 3881.
The subject of experiment [38] is Staphylococcus epidermidis KCTC 1917.
The next experiment deals with Bacillus subtilis PS832.
The next experiment has as its system Escherichia coli DL7.
Experiment [39] has as its system Klebsiella aerogenes ATCC 13048.
The test system of experiment [40] is Staphylococcus epidermidis ATCC 12228.

Turning to `CC[C@H](C)[C@H](NC(=O)[C@H](CC(=O)O)NC(=O)[C@H](CCCCN)NC(=O)[C@H](C)NC(=O)[C@H](C)NC(=O)CNC(=O)[C@H](CCCCN)NC(=O)[C@H](CC(C)C)NC(=O)[C@@H](NC(=O)[C@H](CC(=O)O)NC(=O)[C@@H](NC(=O)[C@@H](NC(=O)CN)C(C)C)C(C)C)[C@@H](C)CC)C(=O)N[C@@H](C)C(=O)NCC(=O)N[C@@H](Cc1cnc[nH]1)C(=O)N[C@@H](CC(C)C)C(=O)N[C@@H](C)C(=O)N[C@@H](CO)C(=O)N[C@@H](CCCCN)C(=O)N[C@H](C(=O)N[C@@H](CCSC)C(=O)N[C@@H](CC(N)=O)C(=O)N[C@@H](C)C(=O)N[C@@H](CC(C)C)C(N)=O)C(C)C` [GVVDILKGAAKDIAGHLASKVMNAL], the MIC is 100 µM (≈ 249 µg/mL) in experiment [1]; greater than 100 µM in experiment [2]; greater than 100 µM in experiment [3]; greater than 100 µM in experiment [4]; no less than 100 µM in experiment [5]; no less than 100 µM in experiment [6].
Turning to `CC[C@H](C)[C@H](NC(=O)CNC(=O)[C@H](CCCN=C(N)N)NC(=O)[C@H](CCCCN)NC(=O)[C@@H](NC(=O)[C@H](Cc1cnc[nH]1)NC(=O)[C@H](Cc1cnc[nH]1)NC(=O)[C@H](Cc1ccccc1)NC(=O)[C@@H](N)Cc1ccccc1)[C@@H](C)CC)C(=O)N[C@H](C(=O)N[C@@H](Cc1cnc[nH]1)C(=O)N[C@H](C(=O)NCC(=O)N[C@@H](CCCCN)C(=O)N[C@H](C(=O)N[C@H](C(=O)N[C@@H](Cc1cnc[nH]1)C(=O)N[C@@H](CCCN=C(N)N)C(=O)N[C@@H](CC(C)C)C(=O)N[C@H](C(=O)N[C@H](C(=O)NCC(=O)O)[C@@H](C)O)C(C)C)[C@@H](C)CC)[C@@H](C)O)C(C)C)C(C)C` [FFHHIKRGIVHVGKTIHRLVTG], the MIC in [7] amounted to 4 µM (≈ 10.2 µg/mL); in [8], 4 µM (≈ 10.2 µg/mL); in experiment [9], 4 µM (≈ 10.2 µg/mL); in [10] it was 4 µM (≈ 10.2 µg/mL); in experiment [11] it was 4 µM (≈ 10.2 µg/mL); in experiment [12], 1 µM (≈ 2.55 µg/mL). Moreover, the MIC worked out at 4 µM (≈ 10.2 µg/mL) in [13]; 16 µM (≈ 40.8 µg/mL) in [14]; 16 µM (≈ 40.8 µg/mL) in experiment [15]; 4 µM (≈ 10.2 µg/mL) in experiment [16]; 4 µM (≈ 10.2 µg/mL) in experiment [17]; 2 µM (≈ 5.11 µg/mL) in [18]. Further, the MIC in [19] was 4 µM (≈ 10.2 µg/mL); in experiment [20] it was 4 µM (≈ 10.2 µg/mL); in experiment [21], 4 µM (≈ 10.2 µg/mL); in experiment [22], 4 µM (≈ 10.2 µg/mL); in [23], 8 µM (≈ 20.4 µg/mL); in experiment [24], 8 µM (≈ 20.4 µg/mL). Further, the MIC in [25] was found to be 8 µM (≈ 20.4 µg/mL); in [26], 16 µM (≈ 40.8 µg/mL); in [27], 16 µM (≈ 40.8 µg/mL); in [28], 16 µM (≈ 40.8 µg/mL); in [29] it was 8 µM (≈ 20.4 µg/mL); in experiment [30] it was 16 µM (≈ 40.8 µg/mL). Moreover, the MIC in experiment [31] came to 16 µM (≈ 40.8 µg/mL); in [32] it was 16 µM (≈ 40.8 µg/mL); in experiment [33] it was 16 µM (≈ 40.8 µg/mL); in [34], 16 µM (≈ 40.8 µg/mL); in experiment [35], 4 µM (≈ 10.2 µg/mL); in [36], 4 µM (≈ 10.2 µg/mL). The MIC in experiment [37] was 4 µM (≈ 10.2 µg/mL); in experiment [38], 2 µM (≈ 5.11 µg/mL).
For the compound `CC(C)C[C@H](NC(=O)[C@H](CCCCN)NC(=O)[C@H](C)NC(=O)[C@H](CC(C)C)NC(=O)[C@H](CCCCN)NC(=O)[C@H](CCCCN)NC(=O)[C@H](C)NC(=O)[C@H](CC(C)C)NC(=O)[C@H](CCCCN)NC(=O)[C@H](C)NC(=O)[C@H](CC(C)C)NC(=O)[C@H](CCCCN)NC(=O)[C@H](Cc1cnc[nH]1)NC(=O)CNC(=O)CN)C(=O)N[C@@H](C)C(=O)N[C@@H](CCCCN)C(N)=O` [GGHKLAKLAKKLAKLAK], the MIC was 0.125 µM and 0.06 µM against Bacillus subtilis PS832; 0.125 µM and 0.06 µM in the experiment with Escherichia coli DL7; no less than 32 µM in experiment [39]; 1 µM (≈ 1.77 µg/mL) in [40].
